The values below are quoted from earlier work in US20080009496A1, “MUTAGENIC HETEROCYCLES” (Koronis Pharmaceuticals, Inc., priority 2003, published 2008).

The conditions of data set [1]: deamination product of 5-aza-dC.
The next data set deals with HIV. To be noted: in vitro.

`O=c1ncn([C@H]2C[C@H](O)[C@@H](CO)O2)c(=O)[nH]1` [5-aza-dU, 5-aza-2′-deoxyuridine]: in data set [1], the antineoplastic activity entry is “loss of antineoplastic activity”.
Turning to `Nc1ncn([C@H]2C[C@H](O)[C@@H](CO)O2)c(=O)n1` [5-aza-dC, 5-aza-2′-deoxycytidine], the “inhibition of HIV replication” value with HIV is “inhibit HIV replication in vitro”.
